The test system of one test is Human alphaherpesvirus 1. The test is described as follows: Antiviral activity against Herpes simplex virus type 1 infected in human KB cells. The format is functional, organism-based.
A further test concerns KB. Briefly: Antiviral activity against Rhinovirus type 13 infected in human KB cells. In kind it is functional, cell-based. The settings on record: Human rhinovirus A13.
The next test has as its system Human respirovirus 3. Briefly: Antiviral activity against Parainfluenza virus type 3 infected in human KB cells. The format is functional, organism-based.

Calls of active or inactive are those of the source. The calls are words filed in the database; no cut-off is given here.

As for `NC(=O)c1ncn([C@@H]2O[C@H](CO)[C@@H](O)[C@H]2O)n1`, the result in the test on Human alphaherpesvirus 1, in the test on KB and in the test on Human respirovirus 3 was Active.

For the molecule `NC(=O)c1ncn([C@@H]2S[C@H](CO)[C@@H](O)[C@H]2O)n1`, in the test on Human alphaherpesvirus 1, the result was Active.

(Values after ChEMBL document CHEMBL3272117, “Synthesis of 1-(4-thio-beta-D-ribofuranosyl)-1,2,4-triazole-3-carboxamide” (J Med Chem, 1976).)
